The record followed here is BindingDB's records for doi:10.1016/j.bioorg.2014.07.012 (Kurukshetra University, 2014).

For one assay, the target named is Cathepsin B (Capra hircus, UniProt H9B8T9). Description: Enzymatic activity assay. Particulars: pH 6; 37 °C. As for the experimental part: (§1) Enzyme was equilibrated in 0.1 M phosphate buffer, pH 6.0 at 37 °C. All compounds were prepared in DMSO. Various concentrations of compounds were added in the reaction mixture separately. The reactions were incubated for 30 min and the activity was estimated by the usual enzyme assay at pH 6.0 using a-N-benzoyl-D,L-arginine-2-naphthylamide (BANA) as substrate.

Another assay addresses T1, Cathepsin H (Capra hircus, UniProt A0A060INS8).
T1 sequence (A0A060INS8 whole entry): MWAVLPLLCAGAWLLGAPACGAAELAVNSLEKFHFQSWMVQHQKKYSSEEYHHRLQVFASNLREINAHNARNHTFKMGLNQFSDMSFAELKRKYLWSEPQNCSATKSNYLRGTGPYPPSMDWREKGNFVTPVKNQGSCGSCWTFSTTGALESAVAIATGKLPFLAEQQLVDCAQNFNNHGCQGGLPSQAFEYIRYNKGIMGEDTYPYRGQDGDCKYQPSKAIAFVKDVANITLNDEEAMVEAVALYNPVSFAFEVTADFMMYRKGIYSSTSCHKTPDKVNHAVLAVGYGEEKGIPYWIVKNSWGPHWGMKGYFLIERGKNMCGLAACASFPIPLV
The experiment in a line: Enzymatic activity assay. As to conditions: pH 6; 37 °C. As to the method:
as §1

For the molecule `O=CN1N=C(c2ccccc2)CC1c1ccc(Cl)cc1` (stereo not given) [N-formyl-5-(-4'-chlorophenyl)-3-phenylpyrazoline (1d)], the Ki was 0.0211 µM on Cathepsin B and 0.137 µM on Cathepsin H.

Consider `O=CN1N=C(c2ccccc2)CC1c1ccccc1` (stereo not given) [N-formyl-3,5-diphenylpyrazoline (1a)], for which the Ki on Cathepsin B turned out to be 0.0227 µM; on Cathepsin H it was 0.174 µM.

`O=CN1N=C(c2ccccc2)CC1c1cccc(Cl)c1` (stereo not given) [N-formyl-5-(-3'-chlorophenyl)-3-phenylpyrazoline (1c)]: the inhibitory constant (Ki) at Cathepsin B worked out at 0.0146 µM; on Cathepsin H, 0.13 µM.

With `O=C(c1ccccc1)N1N=C(c2ccccc2)CC1c1ccccc1` (stereo not given) [N-benzoyl-3,5-diphenylpyrazoline (2a)], the values for the Ki at Cathepsin B and on Cathepsin H were 1.15 µM and 3.2 µM, respectively.

In the case of `O=C(c1ccccc1)N1N=C(c2ccccc2)CC1c1ccc(Cl)cc1` (stereo not given) [N-benzoyl-5-(-4'-chlorophenyl)-3-phenylpyrazoline (2d)], the Ki came to 0.925 µM at Cathepsin B and 3.01 µM at Cathepsin H.

With `O=C(c1ccccc1)N1N=C(c2ccccc2)CC1c1cccc(Cl)c1` (stereo not given) [N-benzoyl-5-(-3'-chlorophenyl)-3-phenylpyrazoline (2c)], the Ki came to 0.677 µM at Cathepsin B and 1.81 µM on Cathepsin H.

`COc1ccc(C2CC(c3ccccc3)=NN2C=O)cc1` (stereo not given) [N-formyl-5-(-4'-methoxyphenyl)-3-phenylpyrazoline (1g)]: the values for the inhibitory constant (Ki) on Cathepsin B and at Cathepsin H were 0.0448 µM and 0.221 µM, respectively.

`O=C(c1ccccc1)N1N=C(c2ccccc2)CC1c1ccccc1[N+](=O)[O-]` (stereo not given) [N-benzoyl-5-(-2'-nitrophenyl)-3-phenylpyrazoline (2h)]: the values for the inhibition constant Ki on Cathepsin B and on Cathepsin H were 0.572 µM and 1.44 µM, respectively.

Take `O=C(c1ccccc1)N1N=C(c2ccccc2)CC1c1ccc([N+](=O)[O-])cc1` (stereo not given) [N-benzoyl-5-(-4'-nitrophenyl)-3-phenylpyrazoline (2j)]: the figures for the Ki on Cathepsin B and on Cathepsin H were 0.287 µM and 1.27 µM, respectively.

Regarding `O=CN1N=C(c2ccccc2)CC1c1cccc([N+](=O)[O-])c1` (stereo not given) [N-formyl-5-(-3'-nitrophenyl)-3-phenylpyrazoline (1i)], the results for the Ki at Cathepsin B and on Cathepsin H were 0.0011 µM and 0.0519 µM, respectively.

Turning to `COc1cccc(C2CC(c3ccccc3)=NN2C(=O)c2ccccc2)c1` (stereo not given) [N-benzoyl-5-(-3'-methoxyphenyl)-3-phenylpyrazoline (2f)], the Ki at Cathepsin B was determined as 1.59 µM; at Cathepsin H, 5.03 µM.

`O=C(c1ccccc1)N1N=C(c2ccccc2)CC1c1ccccc1Cl` (stereo not given) [N-benzoyl-5-(-2'-chlorophenyl)-3-phenylpyrazoline (2b)]: the figures for the inhibition constant (Ki) on Cathepsin B and on Cathepsin H were 0.775 µM and 1.89 µM, respectively.

Regarding `COc1ccc(C2CC(c3ccccc3)=NN2C(=O)c2ccccc2)cc1` (stereo not given) [N-benzoyl-5-(-4'-methoxyphenyl)-3-phenylpyrazoline (2g)], the inhibitory constant (Ki) worked out at 1.28 µM on Cathepsin B and 4.1 µM on Cathepsin H.

`O=C(c1ccccc1)N1N=C(c2ccccc2)CC1c1cccc([N+](=O)[O-])c1` (stereo not given) [N-benzoyl-5-(-3'-nitrophenyl)-3-phenylpyrazoline (2i)]: the Ki on Cathepsin B amounted to 0.195 µM; at Cathepsin H it was 0.98 µM.

On to `COc1cccc(C2CC(c3ccccc3)=NN2C=O)c1` (stereo not given) [N-formyl-5-(-3'-methoxyphenyl)-3-phenylpyrazoline (1f)], for which the Ki on Cathepsin B is 0.0455 µM; at Cathepsin H it was 0.272 µM.

In the case of `COc1ccccc1C1CC(c2ccccc2)=NN1C=O` (stereo not given) [N-formyl-5-(-2'-methoxyphenyl)-3-phenylpyrazoline (1e)], the Ki at Cathepsin B worked out at 0.0668 µM; at Cathepsin H, 0.387 µM.

On to `O=CN1N=C(c2ccccc2)CC1c1ccccc1Cl` (stereo not given) [N-formyl-5-(-2'-chlorophenyl)-3-phenylpyrazoline (1b)], for which the inhibitory constant (Ki) at Cathepsin B was 0.018 µM; at Cathepsin H, 0.135 µM.

In the case of `COc1ccccc1C1CC(c2ccccc2)=NN1C(=O)c1ccccc1` (stereo not given) [N-benzoyl-5-(-2'-methoxyphenyl)-3-phenylpyrazoline (2e)], the inhibitory constant (Ki) at Cathepsin B was found to be 4.9 µM; at Cathepsin H, 9.65 µM.

On to `O=CN1N=C(c2ccccc2)CC1c1ccc([N+](=O)[O-])cc1` (stereo not given) [N-formyl-5-(-4'-nitrophenyl)-3-phenylpyrazoline (1j)], for which the inhibition constant Ki at Cathepsin B was determined as 0.0113 µM; at Cathepsin H, 0.058 µM.

As to `O=CN1N=C(c2ccccc2)CC1c1ccccc1[N+](=O)[O-]` (stereo not given) [N-formyl-5-(-2'-nitrophenyl)-3-phenylpyrazoline (1h)], the Ki was 0.0141 µM on Cathepsin B and 0.0963 µM at Cathepsin H.
